Test results from patent publication US9133179B2, “2-methoxy-pyridin-4-yl-derivatives” (Actelion Pharmaceuticals Ltd., priority 2011, dated 2015).

Assays:
[1] = biological target: T1, human S1P1 (EDG1) receptor (Homo sapiens, UniProt P21453); assay: S1P1 β-arrestin recruitment (Tango) assay to determine EC50 values; assay type: cell-based; conditions: Tango-EDG1 bla U2OS cells, 16 h incubation
T1 construct: host or cells: U2OS (Tango EDG1-bla U2OS)
Source text: S1P1 β-Arrestin Recruitment (Tango) Assay to Determine EC50 Values
Upon ligand activation, G protein-coupled receptors (GPCR) trigger two pathways that independently transduce signals to the cell: one through heterotrimeric GTP-binding proteins (G proteins) and one through β-arrestins. Agonist-induced GPCRs recruit β-arrestin proteins, which then bind to the carboxy-terminal domain of ligand-activated GPCRs. The amount of β-arrestin recruitment can be used to assess the potency and efficacy of GPCR activating ligands.
To measure the potency and efficacy of compounds as S1P1 (EDG1) receptor agonists, Tango™-EDG1 bla U2OS cells (Invitrogen, USA, Catalog #K1520) are used. The Tango™ GPCR technology is based on GeneBLAzer β-lactamase reporter cell assays, which uses a mammalian-optimized β-lactamase reporter gene (bla) combined with a FRET-enabled substrate. The host cells, U2OS, stably express a human S1P1 (EDG1) receptor/transcription factor (TF) fusion protein. The cells also express a recombinant protease tagged β-arrestin protein, which is recruited to the S1P1 receptor upon ligand stimulation and specifically cleaves the S1P1-TF fusion protein. The released TF activates the β-lactamase (bla) reporter gene. To measure the reporter gene activity, cells are loaded with a fluorescent substrate containing two chemically coupled fluorophores, coumarin and fluorescein. […] In the presence of bla, the chemical bond is cleaved and FRET is inhibited. […] The amount of β-arrestin recruitment is proportional to the increase in blue fluorescence.
Tango™-EDG1 bla U2OS cells are cultivated in McCoy's 5A containing 10% dialyzed FBS, 0.1 mM NEAA, 25 mM HEPES, 1 mM sodium pyruvate, 1% Penicillin/Streptomycin, 200 μg/ml zeocin, 50 μg/ml hygromycin and 100 μg/ml geneticin (Invitrogen, USA). Cells are detached with trypsin, resuspended in medium and then counted.
Compounds (10 mM stock in DMSO) are diluted first in DMSO. The pre-diluted compounds solutions are then transferred into Assay Medium/0.1% fatty acid free BSA to reach a fourfold concentrated compound stock, which is applied to the cells to reach the final compound concentrations that range from 10 μM to 0.0005 nM (0.5% final DMSO). Cells are then incubated for 16 h at 37° C. and 5% CO2.

circulating lymphocytes = assay: Assessment of in vivo efficacy: circulating lymphocytes after oral administration to Wistar rats; design: species or system rat; conditions: Rattus norvegicus, Lymphocyte; 6 h after oral administration of 10 mg/kg, normotensive male Wistar rats, compared to vehicle group; read-out: Lymphocyte counts
Procedure: Assessment of In Vivo Efficacy
The efficacy of the compounds of Formula (I) is assessed by measuring the circulating lymphocytes after oral administration of 3 to 30 mg/kg of a compound of Formula (I) to normotensive male Wistar rats. The animals are housed in climate-controlled conditions with a 12 h-light/dark cycle, and have free access to normal rat chow and drinking water. […] Full blood is subjected to hematology using Advia Hematology system (Bayer Diagnostics, Zurich, Switzerland).
All data are presented as mean±SEM. Statistical analyses are performed by analysis of variance (ANOVA) using Statistica (StatSoft) and the Student-Newman-Keuls procedure for multiple comparisons. The null hypothesis is rejected when p<0.05.

T1 sequence (P21453 whole entry): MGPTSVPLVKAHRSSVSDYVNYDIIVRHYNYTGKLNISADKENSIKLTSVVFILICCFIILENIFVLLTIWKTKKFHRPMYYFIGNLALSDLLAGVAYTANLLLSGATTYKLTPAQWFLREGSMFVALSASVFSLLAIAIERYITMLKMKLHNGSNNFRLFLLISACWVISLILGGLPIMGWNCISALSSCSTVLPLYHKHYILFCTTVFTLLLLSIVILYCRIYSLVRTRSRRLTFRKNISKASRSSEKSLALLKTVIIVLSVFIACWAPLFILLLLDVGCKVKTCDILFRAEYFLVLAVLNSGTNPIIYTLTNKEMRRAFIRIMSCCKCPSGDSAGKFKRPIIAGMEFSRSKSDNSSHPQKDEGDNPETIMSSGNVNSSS

## CCc1cc(-c2noc(-c3cc(OC)nc(C4CCCC4)c3)n2)cc(C)c1OCCCNC(=O)CO [Example 29, N-(3-(4-(5-(2-Cyclopentyl-6-methoxypyridin-4-yl)-1,2,4-oxadiazol-3-yl)-2-ethyl-6-methylphenoxy)propyl)-2-hydroxyacetamide]
[1]
  EC50: 0.265 nM
Circulating lymphocytes
  change in vivo at 10 mg/kg: -76%

## CCc1cc(-c2noc(-c3cc(OC)nc(C4CCCC4)c3)n2)cc(C)c1OCCCN(C)C(=O)CCC(=O)O [Example 34, 4-((3-(4-(5-(2-Cyclopentyl-6-methoxypyridin-4-yl)-1,2,4-oxadiazol-3-yl)-2-ethyl-6-methylphenoxy)propyl)(methyl)amino)-4-oxobutanoic acid]
[1]
  EC50: 0.515 nM
Circulating lymphocytes
  change in vivo at 10 mg/kg: -66%

## CCc1cc(-c2nc(-c3cc(OC)nc(C4CCCC4)c3)no2)cc(C)c1OCCNCC(=O)O [Example 55, 2-((2-(4-(3-(2-Cyclopentyl-6-methoxypyridin-4-yl)-1,2,4-oxadiazol-5-yl)-2-ethyl-6-methylphenoxy)ethyl)amino)acetic acid]
[1]
  EC50: 0.1 nM
Circulating lymphocytes
  change in vivo at 10 mg/kg: -72%

## CCc1cc(-c2nnc(-c3cc(OC)nc(C4CCCC4)c3)o2)cc(C)c1OCCCC(=O)O [Example 61, 4-(4-(5-(2-Cyclopentyl-6-methoxypyridin-4-yl)-1,3,4-oxadiazol-2-yl)-2-ethyl-6-methylphenoxy)butanoic acid]
[1]
  EC50: 0.1 nM
Circulating lymphocytes
  change in vivo at 10 mg/kg: -27%

## COc1cc(-c2nc(-c3cc(C)c(OCCCC(=O)O)c(Cl)c3)no2)cc(C2CCCC2)n1 [Example 40, 4-(2-Chloro-4-(5-(2-cyclopentyl-6-methoxypyridin-4-yl)-1,2,4-oxadiazol-3-yl)-6-methylphenoxy)butanoic acid]
[1]
  EC50: 0.05 nM
Circulating lymphocytes
  change in vivo at 10 mg/kg: -65%

## CCc1cc(-c2noc(-c3cc(OC)nc(C4CCCC4)c3)n2)cc(C)c1OCCCN(C)C(=O)CO [Example 30, N-(3-(4-(5-(2-Cyclopentyl-6-methoxypyridin-4-yl)-1,2,4-oxadiazol-3-yl)-2-ethyl-6-methylphenoxy)propyl)-2-hydroxy-N-methylacetamide]
[1]
  EC50: 7.98 nM
Circulating lymphocytes
  change in vivo at 10 mg/kg: -75%

## CCc1cc(-c2nc(-c3cc(OC)nc(C4CCCC4)c3)no2)cc(C)c1OCCNCCC(=O)O [Example 57, 3-((2-(4-(3-(2-Cyclopentyl-6-methoxypyridin-4-yl)-1,2,4-oxadiazol-5-yl)-2-ethyl-6-methylphenoxy)ethyl)amino)propanoic acid]
[1]
  EC50: 0.05 nM
Circulating lymphocytes
  change in vivo at 10 mg/kg: -74%

## CCc1cc(-c2nnc(-c3cc(OC)nc(C4CCCC4)c3)o2)cc(C)c1OC[C@@H](O)CNC(=O)CCC(=O)O [Example 66]
[1]
  EC50: 0.05 nM

## CCc1cc(-c2noc(-c3cc(OC)nc(C4CCCC4)c3)n2)cc(C)c1OCCNC(CO)CO [Example 25, 2-((2-(4-(5-(2-Cyclopentyl-6-methoxypyridin-4-yl)-1,2,4-oxadiazol-3-yl)-2-ethyl-6-methylphenoxy)ethyl)amino)propane-1,3-diol]
[1]
  EC50: 4.23 nM

## CCc1cc(-c2nnc(-c3cc(OC)nc(C4CCCC4)c3)o2)cc(C)c1OC[C@@H](O)CNCCO [Example 64, (S)-1-(4-(5-(2-Cyclopentyl-6-methoxypyridin-4-yl)-1,3,4-oxadiazol-2-yl)-2-ethyl-6-methylphenoxy)-3-((2-hydroxyethyl)amino)propan-2-ol]
[1]
  EC50: 3 nM

## COc1cc(-c2nc(-c3cc(Cl)c(OCCCNC(=O)CO)c(OC)c3)no2)cc(C2CCCC2)n1 [Example 38, N-(3-(2-Chloro-4-(5-(2-cyclopentyl-6-methoxypyridin-4-yl)-1,2,4-oxadiazol-3-yl)-6-methoxyphenoxy)propyl)-2-hydroxyacetamide]
[1]
  EC50: 0.893 nM

## CCc1cc(-c2noc(-c3cc(OC)nc(C4CCCC4)c3)n2)cc(C)c1OCCNCCO [Example 23, 2-((2-(4-(5-(2-Cyclopentyl-6-methoxypyridin-4-yl)-1,2,4-oxadiazol-3-yl)-2-ethyl-6-methylphenoxy)ethyl)amino)ethanol]
[1]
  EC50: 24.7 nM

## CCc1cc(-c2noc(-c3cc(OC)nc(C4CCCC4)c3)n2)cc(C)c1OCCCN1CC(C(=O)O)C1 [Example 22, 1-(3-(4-(5-(2-Cyclopentyl-6-methoxypyridin-4-yl)-1,2,4-oxadiazol-3-yl)-2-ethyl-6-methylphenoxy)propyl)azetidine-3-carboxylic acid]
[1]
  EC50: 2.95 nM

## CCc1cc(-c2noc(-c3cc(OC)nc(C4CCCC4)c3)n2)cc(C)c1OCCCNC(CO)CO [Example 26, 2-((3-(4-(5-(2-Cyclopentyl-6-methoxypyridin-4-yl)-1,2,4-oxadiazol-3-yl)-2-ethyl-6-methylphenoxy)propyl)amino)propane-1,3-diol]
[1]
  EC50: 15.1 nM

## CCc1cc(-c2nc(-c3cc(OC)nc(C4CCCC4)c3)no2)cc(C)c1OCCN1CC(C(=O)O)C1 [Example 58, 1-(2-(4-(3-(2-Cyclopentyl-6-methoxypyridin-4-yl)-1,2,4-oxadiazol-5-yl)-2-ethyl-6-methylphenoxy)ethyl)azetidine-3-carboxylic acid]
[1]
  EC50: 0.2 nM

## CCc1cc(-c2noc(-c3cc(OC)nc(C4CCCC4)c3)n2)cc(C)c1OCCCNCCC(=O)O [Example 19, 3-((3-(4-(5-(2-Cyclopentyl-6-methoxypyridin-4-yl)-1,2,4-oxadiazol-3-yl)-2-ethyl-6-methylphenoxy)propyl)amino)propanoic acid]
[1]
  EC50: 0.4 nM

## CCc1cc(-c2noc(-c3cc(OC)nc(C4CCCC4)c3)n2)cc(C)c1OCCCNCCO [Example 24, 2-((3-(4-(5-(2-Cyclopentyl-6-methoxypyridin-4-yl)-1,2,4-oxadiazol-3-yl)-2-ethyl-6-methylphenoxy)propyl)amino)ethanol]
[1]
  EC50: 69 nM

## CCc1cc(-c2noc(-c3cc(OC)nc(C4CCCC4)c3)n2)cc(C)c1OC[C@@H](O)CNC(=O)CC(=O)O [Example 14]
[1]
  EC50: 0.03 nM

## CCc1cc(-c2nc(-c3cc(OC)nc(C4CCCC4)c3)no2)cc(C)c1OCCN(C)CC(=O)O [Example 56, 2-((2-(4-(3-(2-Cyclopentyl-6-methoxypyridin-4-yl)-1,2,4-oxadiazol-5-yl)-2-ethyl-6-methylphenoxy)ethyl)(methyl)amino)acetic acid]
[1]
  EC50: 0.1 nM

## CCc1cc(-c2noc(-c3cc(OC)nc(C4CCCC4)c3)n2)cc(C)c1OCCN(C)CCC(=O)O [Example 17, 3-((2-(4-(5-(2-Cyclopentyl-6-methoxypyridin-4-yl)-1,2,4-oxadiazol-3-yl)-2-ethyl-6-methylphenoxy)ethyl)(methyl)amino)propanoic acid]
[1]
  EC50: 0.2 nM

## CCc1cc(-c2nnc(-c3cc(OC)nc(C4CCCC4)c3)o2)cc(C)c1OC[C@@H](O)CNC(CO)CO [Example 65]
[1]
  EC50: 0.7 nM

## CCc1cc(-c2noc(-c3cc(OC)nc(C4CCCC4)c3)n2)cc(C)c1OCCCC(=O)NCCO [Example 46, 4-(4-(5-(2-Cyclopentyl-6-methoxypyridin-4-yl)-1,2,4-oxadiazol-3-yl)-2-ethyl-6-methylphenoxy)-N-(2-hydroxyethyl)butanamide]
[1]
  EC50: 1.8 nM

## CCc1cc(-c2noc(-c3cc(OC)nc(C4CCCC4)c3)n2)cc(C)c1OCCCNCC(O)CO (racemic) [Example 28, rac-3-((3-(4-(5-(2-Cyclopentyl-6-methoxypyridin-4-yl)-1,2,4-oxadiazol-3-yl)-2-ethyl-6-methylphenoxy)propyl)amino)propane-1,2-diol]
[1]
  EC50: 25.6 nM
